From US20040010116A1, “Minicell display and products therefrom” (Children's Medical Center Corp., priority 2002, published 2004)
Where no end group is shown, it is not given here.

Assays:
alpha4 integrin = molecular target: T1, alpha4 integrin (Homo sapiens, UniProt P13612); experiment: alpha4 integrin binding
T1 sequence (P13612 34-1032): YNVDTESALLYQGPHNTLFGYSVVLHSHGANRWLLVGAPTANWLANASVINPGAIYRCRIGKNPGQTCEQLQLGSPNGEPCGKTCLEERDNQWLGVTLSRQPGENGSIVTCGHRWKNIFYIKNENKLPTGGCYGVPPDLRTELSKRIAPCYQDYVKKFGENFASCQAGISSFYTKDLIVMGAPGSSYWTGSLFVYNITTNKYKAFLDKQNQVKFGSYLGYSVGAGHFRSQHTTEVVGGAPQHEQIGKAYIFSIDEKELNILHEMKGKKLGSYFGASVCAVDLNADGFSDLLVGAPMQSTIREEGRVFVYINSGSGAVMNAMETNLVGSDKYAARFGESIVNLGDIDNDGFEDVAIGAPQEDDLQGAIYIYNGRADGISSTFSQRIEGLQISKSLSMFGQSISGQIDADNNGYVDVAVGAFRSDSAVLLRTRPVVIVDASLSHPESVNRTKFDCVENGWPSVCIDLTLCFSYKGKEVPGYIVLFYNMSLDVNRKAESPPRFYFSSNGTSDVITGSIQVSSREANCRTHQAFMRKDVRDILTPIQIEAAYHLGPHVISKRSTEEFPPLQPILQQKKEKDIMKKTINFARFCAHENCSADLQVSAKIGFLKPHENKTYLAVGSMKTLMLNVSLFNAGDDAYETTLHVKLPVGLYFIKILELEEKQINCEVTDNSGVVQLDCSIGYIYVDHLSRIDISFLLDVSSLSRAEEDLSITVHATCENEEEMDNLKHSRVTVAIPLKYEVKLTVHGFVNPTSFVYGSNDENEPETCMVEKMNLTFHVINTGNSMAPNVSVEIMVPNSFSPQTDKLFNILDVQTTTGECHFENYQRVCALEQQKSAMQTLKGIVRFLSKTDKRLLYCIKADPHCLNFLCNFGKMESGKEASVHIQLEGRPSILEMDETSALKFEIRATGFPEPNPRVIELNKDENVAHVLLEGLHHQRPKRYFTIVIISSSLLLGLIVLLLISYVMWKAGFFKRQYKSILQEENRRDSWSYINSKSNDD
From the text: (§1) Several screening methods were utilized. Most of the methods follow a similar protocol outlined below.
(§2) A tertiary library may be constructed from a third round of screening and those peptides selected may be used in functional screening assays to further isolate peptides of specific activity.

tumor cells [1] = experiment: Apoptosis of tumor cells; type: cell-based
From the text: as §1, §2

Heparin binding = experiment: Heparin binding
From the text: as §1, §2

macrophage = experiment: Macrophage recruitment by osteopontin, C5a, fibronectin (activity assay of minicell display peptides); type: cell-based
From the text: as §1, §2

[2] = test system: cell/collagen interaction; experiment: Cell/collagen interaction; type: cell-based
From the text: as §1, §2

melanoma cell = experiment: Melanoma cell attachment; type: cell-based
From the text: as §1, §2

CD44 = CD44 (Homo sapiens, UniProt P16070); experiment: CD44 interaction with GAG; type: binding
Chain of CD44 (P16070 21-742, species assumed): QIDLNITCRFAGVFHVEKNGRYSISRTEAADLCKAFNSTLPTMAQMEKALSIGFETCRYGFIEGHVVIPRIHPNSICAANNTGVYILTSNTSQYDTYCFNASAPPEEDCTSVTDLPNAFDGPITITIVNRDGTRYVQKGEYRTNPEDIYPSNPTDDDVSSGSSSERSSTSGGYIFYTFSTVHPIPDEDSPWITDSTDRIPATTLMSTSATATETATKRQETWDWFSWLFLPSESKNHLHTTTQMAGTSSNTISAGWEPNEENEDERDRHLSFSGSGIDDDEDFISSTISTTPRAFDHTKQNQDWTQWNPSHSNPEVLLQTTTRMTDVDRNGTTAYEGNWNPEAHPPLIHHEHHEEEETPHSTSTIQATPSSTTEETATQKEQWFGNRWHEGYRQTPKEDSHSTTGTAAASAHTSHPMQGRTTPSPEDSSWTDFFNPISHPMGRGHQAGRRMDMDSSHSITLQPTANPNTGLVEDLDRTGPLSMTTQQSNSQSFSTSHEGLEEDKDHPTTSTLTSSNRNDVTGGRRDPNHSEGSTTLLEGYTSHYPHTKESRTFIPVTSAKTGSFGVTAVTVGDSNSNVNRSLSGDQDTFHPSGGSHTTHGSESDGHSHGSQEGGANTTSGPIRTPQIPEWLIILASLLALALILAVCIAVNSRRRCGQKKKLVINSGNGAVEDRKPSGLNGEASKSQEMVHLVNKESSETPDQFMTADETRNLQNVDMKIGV
From the text: as §1, §2

[3] = test system: neutrophils, endothelium, fibrosarcomas melanoma; experiment: Neutrophils, endothelium, fibrosarcomas, melanoma attachment; type: cell-based
From the text: as §1, §2

tumor cells [4] = experiment: Homotypic aggregation of tumor cells; type: cell-based
From the text: as §1, §2

cell-cell = experiment: Cell-cell adhesion; type: cell-based
From the text: as §1, §2

[5] = Tolerability of the peptide in animals; type: in vivo
Method: To evaluate that effectiveness of SEQ ID NO: 54 against primary tumor growth and metastasis, 1×10^7 cells were injected subcutaneously into the left flank of nude mice. After six weeks the resulting tumors were aseptically dissected out, minced and 1 mm-tumor pieces were transplanted into the right flank of nude mice using a trocar needle. Two weeks later, when tumors were measured approximately 10 mm, mice were assigned to different experimental groups. One group of 24 animals bearing MDA-MB-231 xenografts were divided into 3 groups that received the following treatments one group of 8 animals received a weekly injection of apoptotic peptide (0.3-100 μg/kg for SEQ ID NO: 54) through the peritoneal cavity. […] Tumors were measured once every two days with microcalipers, and tumor volume was calculated as length×width×height×0.5236. Body weights were measured on the day of the injection, 4 days later and weekly thereafter. […] Total leukocyte and platelet counts were determined manually using a hemocytometer. […] Treatment-related toxicity was evaluated based on the differences in body weight, liver and kidney marker enzymes and the hematological parameters between treatment groups. […] Liver, heart, uterus, ovaries, lungs spinal cord and all long bones were evaluated histologically. […]

Endothelial cell = Endothelial cell attachment; type: cell-based
From the text: as §1, §2

eosinophils = experiment: Activation of apoptosis in eosinophils; type: cell-based; conditions: versus control
From the text: SEQ ID NO: 56 (Acetylated-GRGENPS) activates apoptosis in eosinophils. […] Fibronectin in combination with SEQ ID NO: 56 further increased the percentage of apoptotic cells by roughly 70%.

invasion complex = experiment: Invasion complex binding, in vitro studies
From the text: SEQ ID NO: 55 ([…] is a peptide derived and modified from a parent peptide isolated using minicell display. The design objective for the parent peptide was to generate a mini protein with the mechanistic advantages of taxol, but devoid of the toxicity and side effects of taxol-type drugs.

[6] = test system: integrin signaling, CD44 signaling, rhoB; experiment: Integrin/CD44 signaling and microtubule stabilization in vivo
[7] = Induction of apoptosis and cell death; type: cell-based
collagenase = experiment: Collagenase induction; type: cell-based
From the text: as §1, §2

β integrin = β integrin binding
From the text: as §1, §2

cell = experiment: Cell entry of peptides; type: cell-based
From the text: as §1, §2

fibroblast = experiment: Fibroblast attachment; type: cell-based
From the text: as §1, §2

## LDSPPAALS [SEQ ID NO:21]
alpha4 integrin
  FUNCTIONAL ACTIVITY: alpha4 integrin binding: Inhibits alpha4 integrin

## KRSR [SEQ ID NO:53]
Tumor cells [1]
  FUNCTIONAL ACTIVITY: Apoptotic to tumor cells: Apoptotic to tumor cells

## DSVAYGLKSRSK [SEQ ID NO:16]
Heparin binding
  FUNCTIONAL ACTIVITY: heparin binding: Inhibits heparin binding

## DSVVYGLRSK [SEQ ID NO:14]
Heparin binding
  FUNCTIONAL ACTIVITY: heparin binding: Inhibits heparin binding

## VLEP [SEQ ID NO:7]
macrophage
  FUNCTIONAL ACTIVITY: macrophage recruitment by osteopontin, C5a, fibronectin: Inhibitor of macrophage

## DADQKFGFC [SEQ ID NO:12]
[2]
  FUNCTIONAL ACTIVITY: cell/collagen interaction: Inhibits cell/collagen

## HKFVHWKKPVLPSQNNQ [SEQ ID NO:39]
Melanoma cell
  FUNCTIONAL ACTIVITY: melanoma cell attachment: Inhibits melanoma cell

## KNNQKSEPLIGRKKT [SEQ ID NO:43]
CD44
  FUNCTIONAL ACTIVITY: CD44 interaction with GAG: Inhibits CD44 interaction with

## DRQWGLC [SEQ ID NO:11]
[2]
  FUNCTIONAL ACTIVITY: cell/collagen interaction: Inhibits cell/collagen

## KGMNYTVR [SEQ ID NO:40]
[3]
  FUNCTIONAL ACTIVITY: neutrophils, endothelium, fibrosarcomas melanoma attachment: Inhibits, neutrophils,

## SDV [SEQ ID NO:24]
alpha4 integrin
  FUNCTIONAL ACTIVITY: alpha4 integrin binding: Inhibits alpha4 integrin

## DDDRKWGFC [SEQ ID NO:8]
[2]
  FUNCTIONAL ACTIVITY: cell/collagen interaction: Inhibits cell/collagen

## HGRFILPWWYAFSPS [SEQ ID NO:48]
Tumor cells [4]
  FUNCTIONAL ACTIVITY: homotypic aggregation of tumor cells: Inhibit homotypic aggregation

## EPEESDVGGAADYP [SEQ ID NO:25]
alpha4 integrin
  FUNCTIONAL ACTIVITY: alpha4 integrin binding: Inhibits alpha4 integrin

## KKAKKSRRS [SEQ ID NO:49]
cell-cell
  FUNCTIONAL ACTIVITY: Anti-adhesion (cell-cell): Anti-adhesion (cell-cell)

## Ac-DKMLDP [SEQ ID NO: 54, DKMLDP]
[5]
  Therapeutic index: high
[5]; more than ten fold the optimum effective dose
  Tolerability of relatively high doses: no deleterious effects

## DPGYIGSR [SEQ ID NO:41]
Endothelial cell
  FUNCTIONAL ACTIVITY: endothelial cell attachment: Inhibits endothelial cell

## fibronectin [reference compound]
eosinophils
  Change of the percentage of apoptotic cells (in words): decreased the percentage of apoptotic cells

## PYAGRGDSVVYGLKKKNNQKAEPLIGRKKTR [SEQ ID NO: 55]
Invasion complex
  Binding to the invasion complex: binds to the invasion complex
[6]
  Integrin signaling versus CD44 signaling: uncouple integrin signaling from CD44 signaling
[6]; by down stream activation of rhoB
  Microtubules: stabilization of microtubules
[7]
  Apoptosis and cell death: induces apoptosis and cell death

## KKGKKSKRS [SEQ ID NO:50]
cell-cell
  FUNCTIONAL ACTIVITY: Anti-adhesion (cell-cell): Anti-adhesion (cell-cell)

## LDSAS [SEQ ID NO:20]
alpha4 integrin
  FUNCTIONAL ACTIVITY: alpha4 integrin binding: Inhibits alpha4 integrin

## DQDQRWGYC [SEQ ID NO:9]
[2]
  FUNCTIONAL ACTIVITY: cell/collagen interaction: Inhibits cell/collagen

## LVPSSKGRGDYLAQSQP [SEQ ID NO:36]
collagenase
  FUNCTIONAL ACTIVITY: collagenase induction: collagenase induction

## TPVVPTVDTYDGRGDSLAY [SEQ ID NO:27]
β integrin
  FUNCTIONAL ACTIVITY: β integrin binding: β integrin binding

## QESPSGTDLLVAGSSP [SEQ ID NO:26]
alpha4 integrin
  FUNCTIONAL ACTIVITY: alpha4 integrin binding: Inhibits alpha4 integrin

## GRGDNPS [SEQ ID NO:35]
collagenase
  FUNCTIONAL ACTIVITY: collagenase induction: collagenase induction

## AADVESPS [SEQ ID NO:22]
alpha4 integrin
  FUNCTIONAL ACTIVITY: alpha4 integrin binding: Inhibits alpha4 integrin

## CVVVLVL [SEQ ID NO: 19]
cell
  FUNCTIONAL ACTIVITY: cell entry of peptides: Promotes cell entry of peptides

## RRSRSSTGKKQKSSQSRKTA [SEQ ID NO:51]
cell-cell
  FUNCTIONAL ACTIVITY: Anti-adhesion (cell-cell): Anti-adhesion (cell-cell)

## DRYLKFRPV [SEQ ID NO:38]
Melanoma cell
  FUNCTIONAL ACTIVITY: melanoma cell attachment: Inhibits melanoma cell

## DSVAYGLKSK [SEQ ID NO:15]
Heparin binding
  FUNCTIONAL ACTIVITY: heparin binding: Inhibits heparin binding

## VLPTPTPPGYLSSRSSR [SEQ ID NO:42]
Endothelial cell
  FUNCTIONAL ACTIVITY: endothelial cell attachment: Inhibits endothelial cell

## ESHQKYGYCGGCDRNNP [SEQ ID NO:13]
[2]
  FUNCTIONAL ACTIVITY: cell/collagen interaction: Inhibits cell/collagen

## PNGRGESLAY [SEQ ID NO:37]
collagenase
  FUNCTIONAL ACTIVITY: collagenase induction: inhibits collagenase induction
fibroblast
  FUNCTIONAL ACTIVITY: fibroblast attachment: Inhibits fibroblast attachment,

## Acetylated-GRGENPS (Ac-GRGENPS) [SEQ ID NO: 56]
eosinophils
  Increase of the percentage of apoptotic cells: roughly 20%

## YYWRQQQKSDPVVSRRRSPS [SEQ ID NO:44]
CD44
  FUNCTIONAL ACTIVITY: CD44 interaction with GAG: Inhibits CD44 interaction with

## DGGRGDSLGWYRRGRGGARRSKAKKAAAKNNQKSEPLIGRKKT [SEQ ID NO:52]
Tumor cells [1]
  FUNCTIONAL ACTIVITY: Apoptotic to tumor cells: Apoptotic to tumor cells

## WTGGDDSGSPSSPS [SEQ ID NO:23]
alpha4 integrin
  FUNCTIONAL ACTIVITY: alpha4 integrin binding: Inhibits alpha4 integrin

## DRDRAWGYC [SEQ ID NO:10]
[2]
  FUNCTIONAL ACTIVITY: cell/collagen interaction: Inhibits cell/collagen
